The record followed here is US10525058B2, “Urea derivative or pharmacologically acceptable salt thereof” (KYORIN PHARMACEUTICAL CO., LTD., priority 2015, dated 2020).

The structures appear in SMILES notation.

In this experiment the target is T1, human FPRL1 (Homo sapiens, UniProt P25090).
T1 construct: expressed in transfected cells; host or cells: HEK293 (JCRB9068, NIBIO), transient co-transfection with pCMV-script vectors
T1 sequence (P25090 1-351): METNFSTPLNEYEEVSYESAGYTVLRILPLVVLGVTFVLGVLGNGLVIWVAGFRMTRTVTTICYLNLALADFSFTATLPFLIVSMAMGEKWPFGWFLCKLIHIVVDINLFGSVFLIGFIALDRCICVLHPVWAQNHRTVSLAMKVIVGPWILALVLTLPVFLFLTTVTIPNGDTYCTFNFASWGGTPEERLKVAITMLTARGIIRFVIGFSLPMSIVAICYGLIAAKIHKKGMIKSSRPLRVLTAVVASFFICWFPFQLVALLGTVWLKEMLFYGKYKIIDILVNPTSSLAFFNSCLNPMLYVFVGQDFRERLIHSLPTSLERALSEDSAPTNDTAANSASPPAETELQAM
As to the kind of experiment: Measurement test of agonist activity on human FPRL1 (calcium mobilization in HEK293 cells transfected with human FPRL1 and Gα15). In kind it is cell-based. The settings on record: Fluo-4 NW, molar concentration giving 50% maximum activation, read-out: Efficacy EC50. From the text:
Measurement test of agonist activity on human FPRL1
(1-1) Construction of Human FPRL1 Expression Vector
Human FPRL (SEQ ID NO: 3) was amplified in a PCR reaction from cDNA derived from a monocytic leukemia cell line THP-1 (TIB-202, ATCC) as a template using a forward primer shown in SEQ ID NO: 1, a reverse primer shown in SEQ ID NO: 2, and KOD-plus-ver. 2 (KOD-211, TOYOBO CO., LTD.). […] 2 (LGK-201, TOYOBO CO., LTD.). The ligation product was transformed into DH5α (DNA-901, TOYOBO CO., LTD.), cultured on a 100 μg/mL kanamycin-containing LB medium, and purified with HiSpeed Plasmid Maxi Kit (12662, QIAGEN).
(1-2) Construction of Human Gα15 Expression Vector
2. The amplified PCR product and pCMV-script vector were digested with Hind III and XhoI, and the resultant digest was ligated with Ligation high ver. 2. The ligation product was transformed into DH5α, cultured on a 100 μg/mL kanamycin-containing LB medium, and purified with HiSpeed Plasmid Maxi Kit.
(2-1) Method for Culturing and Subculturing HEK293
HEK293 (JCRB9068, NIBIO) was cultured in an incubator at 5% CO2 and 37° C. using DMEM (11885-092, GIBCO) containing 10% FBS and 1cPenicillin-Streptomycin (15140-122, GIBCO).
(2-2) Introduction of Human FPRL1 and Gal5 Expression Vectors
The cells were inoculated in a Collagen Type 1 coated 6-well plate (4810-010, IWAKI) to 5×10^5 cells/2.5 mL/well and cultured overnight. On the next day, human FPRL1 and Gα15 expression vectors were introduced using Lipofectamine 2000 transfection reagent (11668-019, Life technologies). First, the human FPRL1 and Gal5 expression vectors were diluted with Opti-MEM I Reduced Serum Medium (31985-070, GIBCO) to 2 μg/250 μL/well and Lipofectamine 2000 transfection reagent was diluted with Opti-MEM I Reduced Serum Medium to be 4 μL/250 μL/well. The vectors and reagent were softly diffused, and incubated at room temperature for 5 minutes. The vector solution was mixed with Lipofectamine 2000 transfection reagent in equal amounts. In order to form a complex of the vectors and Lipofectamine 2000 transfection reagent, the mixture was incubated at room temperature for 20 minutes, and added at 500 μL/well to the medium of inoculated cells. The treated cells were cultured for 24 hours, inoculated in Poly-D-Lysine coated 96-well plate (356640, BD Biosciences) at a cell density of 7×10^4 cells/100 μL/well, and cultured for another 24 hours. The resultant cells were used in a measurement test of calcium mobilization in the cells.
(3) Evaluation of Agonist Activity on Human FPRL1 (Test of Calcium Mobilization in Cell)
An appropriate amount of each test compound was first weighed, and dissolved to 10^−2 M by addition of dimethyl sulfoxide (DMSO). […] The plate dispensed with compound solutions was set in Flexstation (Molecular Devices, LLC.) until measurement.
Subsequently, 10 mL of assay buffer and 100 μL of probenecid solution (dissolved by addition of 1 mL of assay buffer to a 250 mM stock) were sufficiently mixed and dissolved in Fluo-4 NW dye mix. The medium of cells inoculated on the previous day was removed, the dissolved Fluo-4 NW dye mix was added in an amount of 90 μL/well, and a reaction was caused in the dark at 37° C. for 45 minutes. The cells after the reaction and chips for addition of the compound were set in Flexstation, and variation in fluorescence intensity over time after addition of the compound was measured [amount of added compound=10 μL (final concentration: 10^−5 M to 10^−12 M), excitation wavelength: 485 nm, measured wavelength: 525 nm, 1.5 sec×54 read]. A value was calculated by subtracting a base value during addition of DMSO from the maximum value of relative fluorescence unit, and analyzed. All the measurement data were analyzed with Prism 4 that was a data analysis tool.
Background: A change in cytosolic calcium serves as a functional read-out for many receptors and channels.
What is called EC50 is the concentration needed to bring the measured effect to its halfway point. With `COc1cc(F)c([C@@H]2Cn3ccnc3[C@H]2NC(=O)Nc2ccc(F)cc2)c(F)c1` (single isomer, unassigned) [Example 7-2, (−)-1-[(6R*,7S*)-6-(2,6-difluoro-4-methoxyphenyl)-6,7-dihydro-5H-pyrrolo[1,2-a]imidazol-7-yl]-3-(4-fluorophenyl)urea], the EC50 is 0.25 nM.
The figure for `COc1ccc(C2CS(=O)(=O)CC2NC(=O)Nc2ccc(Cl)cc2)cc1` (racemic) [Example 1-10, (±)-1-(4-chlorophenyl)-3-[4-(4-methoxyphenyl)-1,1-dioxideterrahydrothiophen-3-yl]urea] is 0.29 nM.
To `COc1cc(F)c([C@@H]2CN3C(=O)CCN=C3[C@H]2NC(=O)Nc2ccc(F)cc2)c(F)c1` (single isomer, unassigned) [Example 9-1, (−)-1-[(7R*,8S*)-7-(2,6-Difluoro-4-methoxyphenyl)-4-oxo-2,3,4,6,7,8-hexahydropyrrolo[1,2-a]pyrimidin-8-yl]-3-(4-fluorophenyl)urea] belongs 0.03 nM.
To `COc1ccc([C@@H]2COC[C@@H]2NC(=O)Nc2ccc(C#N)cc2)cc1` (racemic) [Example 1-6, (±)-cis-1-(4-cyanophenyl)-3-[4-(4-methoxyphenyl)-tetrahydrofuran-3-yl]urea] belongs 10 nM.
Turning to `COc1cc(F)c([C@@H]2CN3C(=O)CON=C3[C@H]2NC(=O)Nc2ccc(F)cc2)c(F)c1` (single isomer, unassigned) [Example 8-1, (−)-1-[(7R*,8S*)-7-(2,6-Difluoro-4-methoxyphenyl)-4-oxo-4,6,7,8-tetrahydro-3H-pyrrolo[2,1-c][1,2,4]oxadiazin-8-yl]-3-(4-fluorophenyl)urea], the concentration giving a half-maximal response (EC50) was 0.03 nM.
To `COc1cc(F)c([C@@H]2COC[C@@H]2NC(=O)Nc2ccc(F)cc2)c(F)c1` (racemic) [Example 1-8, (±)-cis-1-[4-(2,6-difluoro-4-methoxyphenyl)-tetrahydrofuran-3-yl]-3-(4-fluorophenyl)urea] belongs 3.78 nM; to `COc1ccc([C@@H]2COC[C@@H]2NC(=O)Nc2ccc(Cl)cc2)cc1` (racemic) [Example 1-1, (±)-cis-1-(4-Chlorophenyl)-3-[4-(4-methoxyphenyl)tetrahydrofuran-3-yl]urea], 0.25 nM.
To `COc1ccc([C@@H]2COC[C@H]2NC(=O)Nc2ccc(Cl)cc2)cc1` (racemic) [Example 1-9, (±)-trans-1-(4-chlorophenyl)-3-[4-(4-methoxyphenyl)tetrahydrofuran-3-yl]urea] belongs 2.3 nM; to `COc1ccc(C2COC(=O)N2NC(=O)Nc2ccc(Cl)cc2)cc1` (racemic) [Example 5-4, (±)-1-(4-chlorophenyl)-3-[4-(4-methoxyphenyl)-2-oxooxazolidin-3-yl]urea], 2.6 nM.
To `COc1ccc([C@@H]2COC[C@@H]2NC(=O)Nc2ccc(Cl)s2)cc1` (racemic) [Example 1-7, (±)-cis-1-(5-chlorothiophen-2-yl)-3-[4-(4-methoxyphenyl)-tetrahydrofuran-3-yl]urea] belongs 5.2 nM.
With `COc1ccc([C@@H]2CN3C(=O)CON=C3[C@H]2NC(=O)Nc2ccc(F)cc2)cc1` (relative stereo) [Example 10-1, 1-(4-Fluorophenyl)-3-[(7R*,8S*)-7-(4-methoxyphenyl)-4-oxo-4,6,7,8-tetrahydro-3H-pyrrolo[2,1-c][1,2,4]oxadiazin-8-yl]urea], the EC50 came out at 0.29 nM.
The figure for `COc1cc(F)c([C@@H]2Cn3c(C)nnc3C2NC(=O)Nc2ccc(F)cc2)c(F)c1` (single isomer, unassigned; (-)) [Example 7-1, (−)-1-[(6R*,7S*)-6-(2,6-Difluoro-4-methoxyphenyl)-3-methyl-6,7-dihydro-5H-pyrrolo[2,1-c][1,2,4]triazol-7-yl]-3-(4-fluorophenyl)urea] is 0.05 nM.
To `O=C(Nc1ccc(F)cc1)NC1COC[C@H]1c1ccc(Cl)cc1` (mixture of isomers) [Example 5-1, (±)-cis-1-[4-(4-Chlorophenyl)tetrahydrofuran-3-yl]-3-(4-fluorophenyl)urea] belongs 14 nM.
